Measurements taken from US5338726A, “Endothelin converting enzyme inhibitors” (Abbott Laboratories, priority 1992, dated 1994).
pIC50: −log10 of the molar value. Where a name gives a salt, the structure may show the parent alone. Non-standard residues stand in square brackets, D forms with d. Residues, ends and D or L forms follow the SMILES beside them. *: point of attachment. Sta = CC(C)C[C@H](N)[C@@H](O)CC(=O)O; Isovaleryl = CC(C)CC(=O)*

Assays:
Type in all cases: biochemical
[1] = biological target: solubilized endothelin converting enzyme (P3 from rat lung); assay: ECE Inhibitor Screening Assay; conditions: Big ET substrate, 30 minutes at 37° C., HPLC of ET-1 and Big ET, read-out: Inhibition of Endothelin Converting Enzyme IC50
Experimental: The above mixture without the test compound was used as the control.
Following a 15 minute preincubation at 37° C., benzyl succinate (100 μM), NaOAc, and Big ET (3 μg) were added. The mixture was incubated for 30 minutes at 37° C., followed by addition of pepstatin (40 μM) and 10% TFA to stop the reaction. The mixture was vortexed, centrifuged and the supernatant retained for HPLC determination of Big ET, ET-1 and CTF. […] Percent inhibiton calculations were made with reference to controls based on quantitation of the ET-1 and Big ET peaks at the end of the incubation period.

[2] = system: solubilized endothelin converting enzyme (P3 from rat lung); assay: Endothelin converting enzyme activity of solubilized enzyme with protease inhibitors; conditions: at 40 mM; solubilized ECE (P3 from rat lung)
Experimental: (§1) Rat lung plasma membranes were prepared and assayed for endothelin converting enzyme activity as previously described (Biochem. Biophys. Res. Commun. 171 1291 (1990)).
The enzyme has an apparent molecular mass of 90 KD as estimated by SDS-PAGE or gel filtration and appears to be a single peptide protein. […] The enzyme may exist as isozymes with pIs at 6.2 and 6.3. […] The endothelin converting enzyme activity in active Mono Q fractions was inhibited by pepstatin A with an IC50 of 5 nM. The-endothelin converting enzyme activity of solubilized endothelin converting enzyme (P3 from rat lung) is not inhibited at 40 mM by TLCK, aprotinin, PMSF, E-64, bestatin, phosphoramidon or thiorphan. The endothelin converting enzyme activity of active Mono Q fractions was stimulated by divalent metal cations in the order of Mn^+2 ≥Zn^+2 >Ca^+2 >Mg^+2 ≥Ba^+2 =Co^+2.

[3] = biological target: endothelin converting enzyme (active Mono Q fractions of rat lung plasma membranes); assay: Endothelin converting enzyme activity in active Mono Q fractions; conditions: read-out: IC50 for inhibition of endothelin converting enzyme activity
Experimental: as §1
Rat lung plasma membranes (400 mg) were solubilized by stirring at 4° C. for 45 minutes in 50 ml of 20 mM Tris-HCl, pH 7.7 containing 2 mM dithiothreitol and 46 mM NOG (Buffer C). The unsolubilized materials were removed by centrifugation at 60,000×g for 30 minutes. Solubilized materials were injected onto a Mono Q HR 10/10 column (Pharmacia) and eluted with concentration gradients of 0-1M NaCl in 240 ml of Buffer C at 4 ml/minute. (Endothelin converting enzyme active fractions were eluted from 0.07 to 0.14 M NaCl). Absorbance at 280 nm was monitored by a LKB 2150 UVICORD SD monitor. Fractions were analyzed for endothelin converting enzyme activity and by SDS-PAGE. Protein content was determined by the Bio-Rad Protein Assay kit.
The enzyme has an apparent molecular mass of 90 KD as estimated by SDS-PAGE or gel filtration and appears to be a single peptide protein. […] The enzyme may exist as isozymes with pIs at 6.2 and 6.3. […] The endothelin converting enzyme activity in active Mono Q fractions was inhibited by pepstatin A with an IC50 of 5 nM. […]

Compound	pIC50 [1]	other results
CCC(C)C(NC(=O)C(CC1CCCCC1)NC(=O)OC(C)(C)C)C(=O)NC(CC(C)C)C(O)CC(=O)NCC(C)C (stereo not drawn) [Example 39, N-Boc-Cyclohexylalanyl-Isoleucyl-Statyl Isobutylcarboxamide]	8.02	
CCC(C)C(NC(=O)C(CC1CCCCC1)NC(=O)OC(C)(C)C)C(=O)NC(CC(C)C)C(O)CC(=O)NCCc1ccccn1 (stereo not drawn) [Example 40, N-Boc-Cyclohexylalanyl-Isoleucyl-Statyl N-(2-(2-Pyridyl)ethyl)Carboxamide]	8.00	
CCC(C)C(NC(=O)C(CC1CCCCC1)NC(=O)OC(C)(C)C)C(=O)NC(CC(C)C)C(O)CC(=O)NCCN(C)C (stereo not drawn) [Example 41, N-Boc-Cyclohexylalanyl-Isoleucyl-Statyl N-(2-N',N'-Dimethylaminoethyl)Carboxamide]	7.74	
CCC(C)C(NC(=O)C(CC1CCCCC1)NC(=O)OC(C)(C)C)C(=O)NC(CC(C)C)C(O)CC(=O)NCCN1CCOCC1 (stereo not drawn) [Example 42, N-Boc-Cyclohexylalanyl-Isoleucyl-Statyl N-(2-(Morpholin-4-yl)ethyl)Carboxamide]	7.80	
CCC(C)C(NC(=O)C(CC(C)(C)C)NC(=O)OC(C)(C)C)C(=O)NC(CC(C)C)C(O)CC(=O)O (stereo not drawn) [Example 45, N-Boc-tert-Butylalanyl-Isoleucyl-Statyl-OH]	7.29	
CCC(C)C(NC(=O)C(CC(=O)OCc1ccccc1)NC(=O)OC(C)(C)C)C(=O)NC(C(=O)N[C@@H](Cc1ccc2ccccc2c1)[C@@H](O)[C@@H](O)CC(C)C)C(C)CC (stereo partly drawn) [Example 46, (2S,3R,4S)-2-{[N-Boc-Aspartyl(β-O-Benzyl)-Isoleucyl-Isoleucyl]amino}-1-(2-naphthyl)-3,4-dihydroxy-6-methylheptane]	8.40	
CCC(C)C(NC(=O)OC(C)(C)C)C(=O)NC(C(=O)NC(CC(C)C)C(O)CC(=O)N(C)CC(C)C)C(C)CC (stereo not drawn) [Example 52, N-Boc-Isoleucyl-Isoleucyl-Statyl N-Methyl-N-Isobutyl Carboxamide]	8.00	
CC(C)C[C@H](NC(=O)[C@H]1O[C@@H]1C(=O)O)C(=O)NCCCCN=C(N)N [Example E-64, E-64]		inhibition of endothelin converting enzyme activity [2]: not inhibited
O=S(=O)(F)Cc1ccccc1 [PMSF]		inhibition of endothelin converting enzyme activity [2]: not inhibited
Cc1ccc(S(=O)(=O)NC(CCCCN)C(=O)CCl)cc1 (stereo not drawn) [TLCK]		inhibition of endothelin converting enzyme activity [2]: not inhibited
CC(C)C[C@H](NC(=O)[C@@H](O)[C@H](N)Cc1ccccc1)C(=O)O [bestatin]		inhibition of endothelin converting enzyme activity [2]: not inhibited
CC(C)CC(=O)N[C@H](C(=O)N[C@H](C(=O)N[C@@H](CC(C)C)[C@@H](O)CC(=O)N[C@@H](C)C(=O)N[C@@H](CC(C)C)[C@@H](O)CC(=O)O)C(C)C)C(C)C [pepstatin A] (Isovaleryl-VV[Sta]A[Sta]-OH)		pIC50 [3]: 8.30
CC(C)C[C@H](NP(=O)(O)O[C@@H]1O[C@@H](C)[C@H](O)[C@@H](O)[C@H]1O)C(=O)N[C@@H](Cc1c[nH]c2ccccc12)C(=O)O [phosphoramidon]		inhibition of endothelin converting enzyme activity [2]: not inhibited
O=C(O)CNC(=O)C(CS)Cc1ccccc1 (stereo not drawn) [thiorphan]		inhibition of endothelin converting enzyme activity [2]: not inhibited
aprotinin		inhibition of endothelin converting enzyme activity [2]: not inhibited

Second part, led by results:

pIC50 [1]	Compound	other results
7.48	CC[C@H](C)[C@H](NC(=O)OCc1ccccc1)C(=O)N[C@H](C(=O)NC(CC(C)C)P(=O)(O)CC(=O)OC(C)(C)C)[C@@H](C)CC (stereo partly drawn) [Example 33, [1-[N-Cbz-Isoleucyl-Isoleucyl-Amino]-3-methylbutyl (hydroxy)phosphinyl]acetic acid tert-Butyl ester]	
7.72	CCC(C)C(NC(=O)OC(C)(C)C)C(=O)NC(C(=O)NC(CC(C)C)C(O)CC(=O)NCCC(C)C)C(C)CC (stereo not drawn) [Example 34, N-Boc-Isoleucyl-Isoleucyl-Statyl Isoamylcarboxamide]	
7.77	CCC(C)C(NC(=O)OC(C)(C)C)C(=O)NC(C(=O)NC(CC(C)C)C(O)CC(=O)NCC1CCCCC1)C(C)CC (stereo not drawn) [Example 35, N-Boc-Isoleucyl-Isoleucyl-Statyl Cyclohexylmethylcarboxamide]	
8.22	CCC(C)C(NC(=O)C(CC1CCCCC1)NC(=O)N1CCN(C)CC1)C(=O)N[C@@H](Cc1ccc2ccccc2c1)[C@@H](O)[C@@H](O)CC(C)C (stereo partly drawn) [Example 43, (2S,3R,4S)-2-{[IN-(4-Methylpiperazin-1-yl-carbonyl)-Cyclohexylalanyl-Isoleucyl]amino}-1-(2-naphthyl)-3,4-dihydroxy-6-methylheptane Hydrochloride]	
7.70	CCC(C)C(NC(=O)OC(C)(C)C)C(=O)NC(C(=O)NC(CC(C)C)C(O)CC(=O)NCCc1ccccn1)C(C)CC (stereo not drawn) [Example 47, N-Boc-Isoleucyl-Isoleucyl-Statyl N-(2-(2-Pyridyl)ethyl)Carboxamide]	
8.15	CCC(C)C(NC(=O)C(CC1CCCCC1)NC(=O)CCC(=O)O)C(=O)N[C@@H](Cc1ccc2ccccc2c1)[C@@H](O)[C@@H](O)CC(C)C (stereo partly drawn) [Example 48, (2S,3R,4S)-2-{[N-Succinyl-Cyclohexylalanyl-Isoleucyl]amino}-1-(2-naphthyl)-3,4-dihydroxy-6-methylheptane]	
8.52	CCC(C)C(NC(=O)C(CC1CCCCC1)NC(=O)N1CCOCC1)C(=O)N[C@@H](Cc1ccc2ccccc2c1)[C@@H](O)[C@@H](O)CC(C)C (stereo partly drawn) [Example 53, (2S,3R,4S)-2-{[N-(Morpholin-1-yl-carbonyl)-Cyclohexylalanyl-Isoleucyl]amino}-1-(2-naphthyl)-3,4-dihydroxy-6-methylheptane]	
8.30	CC[C@H](C)[C@H](NC(=O)[C@H](C)N(C(=O)N(C)CCN(C)C)C1CCCCC1)C(=O)N[C@@H](Cc1ccc2ccccc2c1)[C@@H](O)[C@@H](O)CC(C)C [Example 54, (2S,3R,4S)-2-{[{N-(N,N-Dimethylaminoethyl)-N-methylamino}carbonyl -Cyclohexylalanyl-Isoleucyl]amino}-1-(2-naphthyl)-3,4-dihydroxy-6-methylheptane]	
8.30	CC[C@H](C)[C@H](NC(=O)[C@H](C)N(C1CCCCC1)S(=O)(=O)N1CCN(C)CC1)C(=O)N[C@@H](Cc1ccc2ccccc2c1)[C@@H](O)[C@@H](O)CC(C)C [Example 55, (2S,3R,4S)-2-{[N-(4-Methylpiperazin-1-yl-sulfonyl)-Cyclohexylalanyl-Isoleucyl]amino}-1-(2-naphthyl)-3,4-dihydroxy-6-methylheptane]	
